These results are taken from article PMC5537305, “Photo-enhanced Aqueous Solubilization of an Azo-compound” (Scientific Reports, 2017).

Assay type in all cases: physicochemical
Series [1] in a line: Aqueous solubilization in 1/15 M phosphate buffer (pH 7.4) under UV, visible light or dark, with cis ratio in solution by HPLC. The protocol:
(§1) Table S3. Cis ratio and aqueous solubilization of 3 under UV irradiation, under visible light irradiation, and in […]
(§2) Compound 3 was shaken at 37 °C under UV irradiation, under visible light irradiation, and in the dark. UV irradiation was performed with a mercury lamp (0.5 mW/cm2). Cis ratio in the aqueous solution was evaluated from the peak areas in HPLC immediately after filtration.
Table S4. Aqueous solubilization and cis ratio of 3 under irradiation at various wavelengths through filters of […]
Illumination was performed with a xenon lamp using repeated cycles of irradiation and shaking (5000 flashes, then shaking for 10 sec) through filters of various bandwidths at room temperature (20-22 °C) for 1 h. The cis ratio in the aqueous solution was evaluated by HPLC immediately after filtration, based on peak area.
Table S5. Aqueous solubilization of 3 under UV irradiation at various intensity levels.
Sample irradiation was conducted using 365 nm LED light (max light intensity: 290 mW/cm2) at 37 °C for 1 […]
Sample irradiations were conducted with the white light through a filter cutting off wavelengths below 560 nm, or with 365 nm LED light (344 mW/cm2) at 37 °C for 1 h.
Table S7. Aqueous dissolution of UV-irradiated crystals of 3 measured in the dark, and the cis ratio contained […]
Crystals of 3 were irradiated with 365 nm LED light (344 mW/cm2) at 37 °C for 3 h.
The UV-irradiated crystals and unirradiated crystals were each shaken in phosphate buffer in the dark at 37 °C for 1 h.
Physicochemical properties […]
Compound 3 (about 0.2 mg) was ground and taken up in 1/15 M phosphate buffer (pH 7.4, 1.0 mL) in a 10 mL glass tube. The suspension was incubated under ultrasound irradiation for 10 min, and shaken in a temperature controllable incubator located in a dark room for the indicated time at the indicated temperature.
With shaking on a plate shaker, a sample was irradiated with a 365 nm mercury lamp (4 W, UVP compact […]
white LED light (5 W, Nikki Trading Corp., NLSS05BM, 68 and 54 mW/cm2 at 450 and 540 nm, respectively) through a filter cutting off wavelengths below 560 nm (Atto Corp. YA-3). Irradiation was done from the top of the sample glass tube. Then, the suspension was filtered through a Millipore Millex-LG (0.20 […]
For irradiation at various UV wavelengths, 3 (about 0.1 mg) was ground and taken up in 1/15 M phosphate buffer (pH 7.4, 0.2 mL) in a well of a 96-well white plate. Illumination over a range of wavelength from 355-540 nm was performed using a plate reader EnVision equipped with a xenon flash lamp (35 W, 500 Hz), with excitation filters of appropriate bandwidths.

Series [2] in a line: LogPow by HPLC method (OECD 117). The conditions noted are these: reversed-phase HPLC column (Inertsil ODS-4). As for the experimental part: Inc. Inertsil ODS-4 reversed-phase column, 5 µm, 4.6 mm x 150 mm) eluted with a mobile phase consisting of H2O and CH3CN (45: 55) at a flow rate of 1.0 mL/min, with UV monitoring at 300 (for 1) or 330 (for 2) nm, at 37 ° C. The dead time t0 was measured with thiourea as the unretained compound. Each measurement was performed in duplicate, and the mean retention time (tR) was used for further calculations. The capacity factor of each compound, k = ((tR – t0) / t0), was calculated by extrapolation of the line fitted on the measured log k values of CH3CN−aqueous mobile phase. For the reference substrates (acetanilide, methyl benzoate, toluene, 4-phenylphenol, benzyl benzoate, dibenzyl), the calculated log k values were plotted against logPow values, and the absolute calibration curve was determined (LogP = 2.8279 x (log k) + 1.6035, R2=0.98). The LogP values of tested compounds were calculated using a previously prepared calibration curve from the tR […]
We observed the azobenzene compound using an optical microscope (BX-51P, Olympus). Bright-field images were captured in the reflection mode. For investigation of the existence of the polarization plane in the sample, the transmitted polarizing microscope mode under crossed-Nicol conditions was used. […] The intensity of illuminating UV light at the sample was monitored with an optical power meter […]

Series [3] can be described thus: Aqueous solubility of stilbenes 1 and 2 in phosphate buffer. The conditions noted are these: for solubility at 24 h: 20 °C, aqueous buffer, thermodynamic from solid, 20 °C for 24 h.
Description: First, we synthesized cis- and trans-stilbene analogs 1 and 2 as models for cis- and trans-azobenzenes, respectively (Fig. 1, Fig. S1). As expected, cis-1 was 14 times more soluble than trans-2 in phosphate buffer (Table S1). To confirm the putative mechanism of the higher solubility of the cis isomer, the melting point and LogP ow were examined as parameters of intermolecular interaction and hydrophobicity, respectively. The order of lower melting points (cis < trans) was the same as the order of higher aqueous solubility (cis > trans). As for hydrophobicity, the LogP ow values of 1 and 2 were almost the same. […] Therefore, the bent and twisted structure of cis-azobenzenes may result in greater aqueous solubility.
Table S1. Physicochemical properties of stilbenes 1 and 2.
Compound (µg/mL) Melting point (º C) LogPow λmax (nm)
Table S2. Photoinduced isomerization of 3
Light Time (min) cis ratio (%) trans ratio (%)
Compound 3 (10 µM) in a mixture of water and MeOH (1%) was successively exposed to white light and to a 365 nm mercury lamp (0.5 mW/cm2). The cis-trans ratio was calculated from the peak areas in HPLC.
as §1
Shake UV light Visible light Dark time cis ratio Solubilized 3 cis ratio Solubilized 3 cis ratio Solubility (%) (µg/mL) (%) (µg/mL) (%) (µg/mL)
as §2

A word on the chromatographic logP: it is lipophilicity estimated from chromatographic retention. High values mean a more lipophilic compound, low ones a more hydrophilic compound. For orientation: solubility means how much of the substance goes into solution per volume.

Structures are written as SMILES. Values after ≈ are worked out from the molar mass of the structure shown.

As for `O=C(O)c1cc(/N=N/c2ccc(S(=O)(=O)Nc3ccccn3)cc2)ccc1O` [Compound 4, Sulfasalazine, reference compound], the “aqueous solubilization under UV irradiation vs in the dark” value in series [1] (UV 0.5 mW/cm2, 37 °C, 5 h) is “essentially the same”. In addition, in series [1] (more intense UV irradiation (344 mW/cm2)), the “increase of solubilization by UV irradiation” value is 1.4 fold.
`COc1ccc(/C=C\c2ccc(OC)c(OC)c2)cc1OC` [cis-1] showed a chromatographic logP in series [2] of 3.3. This molecule also displayed a solubility at 24 h in series [3] of 0.673 µg/mL (≈ 2.24 µM). In series [3] (cis-1 vs trans-2), the “times more soluble than trans-2” value was 14 times.
`COc1ccc(/C=C/c2ccc(OC)c(OC)c2)cc1OC` [trans-2]: the chromatographic logP in series [2] was 3.2. In series [3], this molecule showed a solubility at 24 h of 0.0475 µg/mL (≈ 0.158 µM).
